Test results as given in publication PMC11428108 (Frontiers in Molecular Neuroscience, 2024).
Where “and” joins values, the source holds several entries; their conditions need not be identical. Equal entries are not always repeated. Where two headings read alike, the source gives them in different places.

Experiments:
[1] = test system: α4β2*, (α4)2(β2)2α5, and (α4)2(β2)2β3 nAChRs; assay: FLEXstation assay, summary over α4β2* stoichiometries with low-affinity agonist binding sites; format: cell-based, human
From the text: Human embryonic kidney (HEK) cell lines stably expressing human (α4)2(β2)2β2/α4 (α4β2*) nAChRs, (α4)2(β2)2α5 nAChRs, (α4)2(β2)2β3 nAChRs, (α3)2(β4)2α3/β4 (α3β4*) nAChRs, (α3)2(β2)2α3/β2 (α3β2*) nAChRs, (α3)2(β4)2α5 nAChRs, or (α3)2(β2)2α5 nAChRs were maintained as described previously ([Wang et al., 2015]; [Kuryatov et al., 2005]; [Caligiuri et al., 2022]). The FLEXstation bench top scanning fluorometer from Molecular Devices was used to assay nAChR function in these cells, according to published protocols ([Wang et al., 2015]; [Kuryatov et al., 2005]). The membrane potential kit (Molecular Devices) was used according to the manufacturer’s protocols. Serial dilutions of SR9883 were manually added to the assay plate 15 min prior to recording. […] Potency and efficacy were calculated using the Hill equation as described previously ([Wang et al., 2015]).
Concentration-response curves of SR9883 actions in nAChR-expressing HEK cells and oocytes were fitted to the Hill equation using a nonlinear least squares curve fit method and efficacy and potency values were calculated as previously described ([Wang et al., 2015]). […] For the ICSS threshold experiment, percentages of baseline reward threshold scores were calculated by expressing the absolute threshold scores as a percentage of the scores obtained during baseline. […] Response latency data were analyzed in the same manner as the threshold data. […]

(α4)2(β2)2α4 nAChRs = target: T1, (α4)2(β2)2α4 nAChRs (Homo sapiens, UniProt P17787+P43681); assay: nAChR-mediated currents in oocytes expressing (α4)2(β2)2α4 nAChRs (unpublished observations); format: cell-based; details: pure stoichiometry
T1 construct: expressed in transfected cells
Procedure: (§1) Concentration-response curves of SR9883 actions in nAChR-expressing HEK cells and oocytes were fitted to the Hill equation using a nonlinear least squares curve fit method and efficacy and potency values were calculated as previously described ([Wang et al., 2015]). Plasma and brain levels of SR9983 after oral administration were compared using a two-tailed paired t test. […] For the ICSS threshold experiment, percentages of baseline reward threshold scores were calculated by expressing the absolute threshold scores as a percentage of the scores obtained during baseline. The baseline values were the mean thresholds on the three sessions prior to drug injections. Response latency data were analyzed in the same manner as the threshold data. […] Effects of SR9883 on responding for food pellets in rats was analyzed by a two-tailed paired t test. […] Significant main or interaction effects in ANOVAs were followed by Bonferroni or Newman–Keuls post-hoc tests as appropriate. All statistical analyses were performed using GraphPad Prism software with α set to 0.05.

[2] = Brain penetration: plasma and brain levels 120 min after oral dosing; format: in vivo, C57BL/6J mice; details: C57BL/6J, mouse, 20 mg kg^−1 PO
Procedure: Mice prepared with intravenous catheters and treated with SR9883 via oral (10 mg kg^−1) or intravenous (1 mg kg^−1) routes of administration. Blood samples were collected up to 240 min after treatment into lithium heparin coated tubes (Ram Scientific) and stored on wet ice. Blood samples were later centrifuged for 3 min at 5,000 RPM to separate plasma from red blood cells. Plasma was collected into a fresh tube and stored at −80°C. A separate group of mice was treated with SR9883 (20 mg kg^−1 PO) and killed by cervical dislocation 120 min later. Their brains were collected and stored at −80°C. SR9883 levels were quantified in plasma and brain by mass spectrometry using an ABSciex 5,500 instrument and using multiple reaction monitoring as previously described ([Radnai et al., 2021]). Brain samples were homogenized in saline and then immediately treated with twice the amount (v:v) of acetonitrile to extract the compound. Plasma samples were directly treated with acetonitrile. Samples were filtered through a 0.2 μm filter plate prior to injection onto the LC–MS/MS as previously described ([Radnai et al., 2021]).

[3] = test system: Chrna5^+/+ and Chrna5^−/− mice; assay: Open-field locomotor activity, SR9883 alone or with nicotine; format: in vivo; details: for Cumulative distance traveled during 60 min session: SR9883 5 or 10 mg kg^−1 IP
Procedure: as §1, with “Locomotor activity was assessed in an open-field apparatus (40 cm × 40 cm; Omnitech Electronics Inc.) under low illumination (~30 radiometric lux). Mice were habituated to the apparatus for 60 min on the day before treatments commenced. On test days, mice received a total of two systemic injections. First, mice were injected intraperitoneally with SR9883 (0, 5, 10 mg kg^−1) and returned to their home cages. […] Mice were then placed in the center of the apparatus and the total distance they traveled was recorded for 60 min (Fusion software, Omnitech Electronics Inc.). Concentration-response” for “Concentration-response”

male Wistar rats [4] = assay: Intravenous nicotine self-administration (FR5TO20); format: in vivo; details: for Numbers of nicotine infusions earned vs vehicle: nicotine 0.03 mg kg^−1 per infusion
Procedure: Operant chambers (Med Associates, East Fairfield, VT, United States) were used to assess responding by rats for food pellets and intravenous nicotine infusions. […] All rats were food-restricted to maintain their body weight at approximately 85% that of free-feeding weights. They were then trained to press an active lever for 45 mg food pellets on a fixed ratio 5 time-out 20 s (FR5TO20) schedule of reinforcement. […] Rats responded for food rewards until a reliable responding was achieved, defined as >90 pellets earned per 60 min session across three consecutive sessions. […] Rats were anesthetized using 1–3% isoflurane inhalation in oxygen and catheters were implanted into the left jugular vein. The catheter was passed subcutaneously to a polyethylene assembly mounted on the animals’ back. […] During the time period, responding on the active lever had no scheduled consequence.
as §1

male Wistar rats [5] = assay: Operant responding for food pellets (FR5TO20); format: in vivo; details: SR9883 10 mg kg^−1 IP, food-restricted rats; p = 0.9868
Procedure: Operant chambers (Med Associates, East Fairfield, VT, United States) were used to assess responding by rats for food pellets and intravenous nicotine infusions. […] All rats were food-restricted to maintain their body weight at approximately 85% that of free-feeding weights. They were then trained to press an active lever for 45 mg food pellets on a fixed ratio 5 time-out 20 s (FR5TO20) schedule of reinforcement. […] Rats responded for food rewards until a reliable responding was achieved, defined as >90 pellets earned per 60 min session across three consecutive sessions. […] Rats were anesthetized using 1–3% isoflurane inhalation in oxygen and catheters were implanted into the left jugular vein. […]
Concentration-response curves of SR9883 actions in nAChR-expressing HEK cells and oocytes were fitted to the Hill equation using a nonlinear least squares curve fit method and efficacy and potency values were calculated as previously described ([Wang et al., 2015]). […] For the ICSS threshold experiment, percentages of baseline reward threshold scores were calculated by expressing the absolute threshold scores as a percentage of the scores obtained during baseline. […] Response latency data were analyzed in the same manner as the threshold data. […] Effects of SR9883 on responding for food pellets in rats was analyzed by a two-tailed paired t test. […]

T1 sequence (P43681 29-627 limits assumed): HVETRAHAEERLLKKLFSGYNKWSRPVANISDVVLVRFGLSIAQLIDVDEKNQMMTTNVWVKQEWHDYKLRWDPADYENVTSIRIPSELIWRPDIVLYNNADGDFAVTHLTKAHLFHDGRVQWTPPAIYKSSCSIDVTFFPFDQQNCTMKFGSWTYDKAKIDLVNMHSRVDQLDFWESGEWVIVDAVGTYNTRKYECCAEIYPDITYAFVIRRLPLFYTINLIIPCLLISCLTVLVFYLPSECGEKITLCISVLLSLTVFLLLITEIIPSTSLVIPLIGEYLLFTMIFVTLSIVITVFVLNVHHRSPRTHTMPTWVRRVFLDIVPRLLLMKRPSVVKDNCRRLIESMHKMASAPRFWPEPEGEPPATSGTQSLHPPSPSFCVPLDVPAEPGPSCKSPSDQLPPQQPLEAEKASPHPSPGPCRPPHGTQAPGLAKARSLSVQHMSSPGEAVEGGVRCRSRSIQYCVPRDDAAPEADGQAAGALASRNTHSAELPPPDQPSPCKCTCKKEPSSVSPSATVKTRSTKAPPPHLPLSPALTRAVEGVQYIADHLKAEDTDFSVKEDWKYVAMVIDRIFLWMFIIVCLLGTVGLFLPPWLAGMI
T1 sequence (P17787 26-502): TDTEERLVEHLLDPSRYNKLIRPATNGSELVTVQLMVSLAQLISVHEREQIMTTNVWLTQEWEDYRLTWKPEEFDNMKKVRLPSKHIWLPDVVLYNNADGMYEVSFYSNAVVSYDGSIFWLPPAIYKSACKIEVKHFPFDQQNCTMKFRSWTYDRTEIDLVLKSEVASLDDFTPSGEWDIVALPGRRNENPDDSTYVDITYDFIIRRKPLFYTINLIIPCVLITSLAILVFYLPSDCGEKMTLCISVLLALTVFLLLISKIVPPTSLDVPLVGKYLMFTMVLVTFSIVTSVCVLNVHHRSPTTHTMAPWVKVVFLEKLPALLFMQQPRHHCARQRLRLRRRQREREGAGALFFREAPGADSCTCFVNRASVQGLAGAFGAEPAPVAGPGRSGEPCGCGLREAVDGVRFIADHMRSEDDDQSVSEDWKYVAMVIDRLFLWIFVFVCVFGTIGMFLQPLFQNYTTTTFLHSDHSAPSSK

## N#Cc1cccc(-n2nnc(-c3cccnc3)n2)c1 [SR9883, 3-(5-(pyridin-3-yl)-2H-tetrazol-2-yl)benzonitrile]
[1]; EC20-30 nicotine
  Concentration inducing maximal enhancement of nAChR signaling: ~ 3 μM
[1]; enhancement of the effect of nicotine, read-out: EC50 values, range over stoichiometries
  EC50: 200 to 400 nM
(α4)2(β2)2α4 nAChRs
  nAChR-mediated currents: enhanced nAChR-mediated currents
[2]; brain, read-out: Brain SR9883 level
  concentration at 120 min: ~4.5 µM and ~1100 ng/mL
[2]; plasma, read-out: Plasma SR9883 level
  concentration at 120 min: ~2600 ng/mL and ~11 µM
[3]; SR9883 5 mg kg^−1, nicotine-injected Chrna5^+/+ and Chrna5^−/− mice, p = 0.0002
  Locomotor activity (total distance traveled) vs vehicle: reduced
[3]; SR9883 10 mg kg^−1, nicotine-injected Chrna5^+/+ and Chrna5^−/− mice, p = 0.0049
  Locomotor activity (total distance traveled) vs vehicle: reduced
[3]; nicotine (0.25 mg kg^−1 SC)-injected Chrna5^+/+ mice, Dose x Time p = 0.0047
  Cumulative distance traveled during 60 min session: decreased
[3]; nicotine (0.25 mg kg^−1 SC)-injected Chrna5^−/− mice, Dose x Time p = 0.0946, not significant
  Cumulative distance traveled during 60 min session: tended to be decreased
[3]; saline-injected Chrna5^+/+ mice
  Cumulative distance traveled during 60 min session: unchanged
[3]; saline-injected Chrna5^−/− mice
  Cumulative distance traveled during 60 min session: unchanged
Male Wistar rats [4]; SR9883 5 mg kg^−1 IP, p = 0.0021
  Numbers of nicotine infusions earned vs vehicle: decreased
Male Wistar rats [4]; SR9883 10 mg kg^−1 IP, p < 0.0001
  Numbers of nicotine infusions earned vs vehicle: decreased
Male Wistar rats [4]; SR9883 5 and 10 mg kg^−1 IP, p = 0.1274, not significant
  Responding on the inactive lever: tended to be decreased
Male Wistar rats [4]; baseline sessions prior to each SR9883 treatment
  Residual deficits in nicotine responding across daily sessions after treatment: no residual deficits
Male Wistar rats [5]
  Food responding (food pellets earned): had no effect
